Reference: patent US20100197679A1, “COMPOUNDS” (Glaxo Group Limited, priority 2007, published 2010)
Where a name gives a salt, the structure may show the parent alone. Read-outs that look alike come from different tables or passages of the source.

Columns and labels:
[1] = test system: Mycobacterium tuberculosis H37Rv; assay: Mycobacterium tuberculosis H37Rv Inhibition Assay (MIC, resazurin fluorescence); type: cell-based; conditions: ATCC 25618 / H37Rv
[2] = Whole-cell antimicrobial activity assay, broth microdilution (CLSI M7-A7), MIC; type: cell-based; conditions: two-fold dilutions 0.016 to 16 mcg/mL, at least one of the listed Gram-positive/Gram-negative organisms, at least one exemplified salt or free base form, read-out: MIC against at least one of the organisms listed
Protocol: Whole-cell antimicrobial activity was determined by broth microdilution using the Clinical Laboratory Standards Institute (CLSI) recommended procedure, Document M7-A7, “Methods for Dilution Susceptibility Tests for Bacteria that Grow Aerobically”. The compounds were tested in serial two-fold dilutions ranging from 0.016 to 16 mcg/mL.
The minimum inhibitory concentration (MIC) was determined as the lowest concentration of compound that inhibited visible growth. A mirror reader was used to assist in determining the MIC endpoint.
Compounds were evaluated against Gram-positive organisms, including Staphylococcus aureus, Streptococcus pneumoniae, Streptococcus pyogenes, Enterococcus faecalis and Enterococcus faecium.
In addition, compounds were evaluated against Gram-negative organisms including Haemophilus influenzae, Moraxella catarrhalis, Escherichia coli, Pseudomonas aeruginosa, Proteus mirabilis, Enterobacter cloacae, Enterobacter aerogenes, Klebsiella pneumoniae, Acinetobacter baumanii and Stenotrophomonas maltophilia.

[3] = H37Rv strain (ATCC25618), Middlebrook 7H9+ADC, six days at 37° C., resazurin read after 48 hours, read-out: MIC value

With `COc1ccc2ncc(=O)n(-c3cnc4c(c3)C[C@@H](O)[C@H](NCc3cc5c(cn3)OCCO5)C4)c2n1` (racemic) [Example 18, 4-{(6R/S,7R/S)-7-[(2,3-Dihydro[1,4]dioxino[2,3-c]pyridin-7-ylmethyl)amino]-6-hydroxy-5,6,7,8-tetrahydro-3-quinolinyl}-6-(methyloxy)pyrido[2,3-b]pyrazin-3(4H)-one dihydrochloride] the MIC ([1]; read-out: MIC value, H37Rv strain (ATCC25618), Middlebrook 7H9+ADC, six days at 37° C., resazurin read after 48 hours) was ≤ 1.1 µg/mL.
In the case of `COc1ccc2ncc(=O)n(-c3cnc4c(c3)C[C@@H](O)[C@@H](NCc3cc5c(nn3)OCCO5)C4)c2n1` (relative stereo) [Example 13, Cis-4-{7-[(6,7-Dihydro[1,4]dioxino[2,3-c]pyridazin-3-ylmethyl)amino]-6-hydroxy-5,6,7,8-tetrahydro-3-quinolinyl}-6-(methyloxy)pyrido[2,3-b]pyrazin-3(4H)-one dihydrochloride], the MIC [1, 3] is reported as ≤ 1.1 µg/mL.
For `COc1ccc2ncc(=O)n(-c3cnc4c(c3)C[C@@H](O)[C@@H](NCc3cc5c(cn3)OCCO5)C4)c2n1` (relative stereo) [Example 14, Cis-4-{7-[(2,3-Dihydro[1,4]dioxino[2,3-c]pyridin-7-ylmethyl)amino]-6-hydroxy-5,6,7,8-tetrahydro-3-quinolinyl}-6-(methyloxy)pyrido[2,3-b]pyrazin-3(4H)-one], the MIC [1, 3] was ≤ 1.1 µg/mL.
With `COc1ccc2ncc(=O)n(-c3cnc4c(c3)CCC(NCc3cc5c(nn3)OCCO5)C4)c2n1` (stereo not drawn) [Example 7, 4-{7-[(6,7-Dihydro[1,4]dioxino[2,3-c]pyridazin-3-ylmethyl)amino]-5,6,7,8-tetrahydro-3-quinolinyl}-6-(methyloxy)pyrido[2,3-b]pyrazin-3(4H)-one hydrochloride] the MIC [1, 3] was ≤ 1.1 µg/mL.
For `COc1ccc2ncc(=O)n(-c3cnc4c(c3)CCC(NCc3cc5c(cn3)OCCO5)C4)c2n1` (stereo not drawn) [Example 8, 4-{7-[(2,3-Dihydro[1,4]dioxino[2,3-c]pyridin-7-ylmethyl)amino]-5,6,7,8-tetrahydro-3-quinolinyl}-6-(methyloxy)pyrido[2,3-b]pyrazin-3(4H)-one hydrochloride], the MIC [1, 3] was ≤ 1.1 µg/mL.
`COc1ccc2ncc(=O)n(-c3cnc4c(c3)OCC(NCc3cc5c(cn3)OCCO5)C4)c2n1` (stereo not drawn) [Example 17, 4-{3-[(2,3-Dihydro[1,4]dioxino[2,3-c]pyridin-7-ylmethyl)amino]-3,4-dihydro-2H-pyrano[3,2-b]pyridin-7-yl}-6-(methyloxy)pyrido[2,3-b]pyrazin-3(4H)-one fumarate] showed an MIC [2] of 16 µg/mL.
